The target of data set [1] is MAO-A enzyme (Homo sapiens (Human), UniProt P21397). Kind of data set: Measurement of MAO-A inhibitory activity (MAO-Glo Assay). It counts as biochemical.
Data set [2] concerns the target MAO-B enzyme (Homo sapiens (Human), UniProt P27338). Nature of the data set: Measurement of MAO-B inhibitory activity (MAO-Glo Assay).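 Also: luminescence read-out, compound preincubated 10 min with enzyme then reacted 60 min at room temperature, inhibition relative to enzyme reaction without compound, blank lacking enzyme and compound.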 The settings on record: read-out: MAO-B IC50 value.
Data set [3] is described as follows: Evaluation of hippocampal distribution in mouse. The data set is classed as in vivo. The settings on record: male ICR mice, 10 mg/kg oral. The method in brief: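 Male ICR mice dosed orally at 10 mg/kg as suspension in 0.5% methylcellulose/0.02% citric acid/water. Plasma and hippocampus sampled together at 0.5, 1 or 1.5 h; LC/MS/MS concentrations gave hippocampus/plasma ratio.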

For data set [4], the target named is human LSD1(172-833) (Homo sapiens (Human), UniProt O60341). Kind of data set: Measurement of LSD1 inhibitory activity (time-resolved fluorescence, biotin-histone H3 mono methylated K4 peptide). It counts as biochemical. A digest of the protocol:
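Remaining signal detected by TR-FRET after 60 min with europium anti-histone H3 antibody and streptavidin-XL665 in potassium fluoride/0.1% BSA.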

The test system of data set [5] is white blood cell number, red blood cell number, platelet number. Nature of the data set: Evaluation of blood cell number in mouse. It counts as in vivo. The settings on record: oral, Day 2 after administration. A digest of the protocol:
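Male ICR mice dosed orally at 1, 10, 50 or 100 mg/kg (suspension in 0.5% methylcellulose/0.02% citric acid/water); whole blood collected on Day 2. White cell, red cell and platelet counts per unit volume by automated haematology analyser, expressed as % of mean of untreated control group.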

In data set [6] the test system is Gad1 H3K4me2 level in rat primary culture neurons. Nature of the data set: Gad1 H3K4 methylation induction activity in rat primary culture neurons (ChIP-qPCR). The data set is classed as cell-based. The settings on record: Rattus norvegicus, Neuron, 72 h, control without compound = 100%. How it is done:
Gad1 H3K4 Methylation Induction Activity in Rat Primary Culture Neurons
Thereafter, the compound was added to final concentrations of 1 or 10 μM, and the cells were further cultured for 3 days. The culture supernatant was aspirated, ice-cold PBS was added, and the cell suspension was collected on ice using CELL SCRAPER (IWAKI). […] (750 μL). Furthermore, 0.3% NP40/cell lysis buffer 1 (750 μL) was added, and the cells were lysed by incubating for 5 min on ice.
Using the DNA obtained by the chromatin immunoprecipitation as a template, quantitative PCR of the Gad1 gene upstream genomic region was performed, and the measurement value was taken as the Gad1 H3K4me2 level. […] The Gad1 H3K4me2 induction by the compound was expressed by the H3K4me2 level when the compound was added, as compared to the H3K4me2 level of the control (without addition of the compound) as 100%.

[7] abbreviates: hippocampus, 0.5 hr after administration, read-out: hippocampus concentration (mean).
Where [8] appears, read: plasma, 0.5 hr after administration, read-out: plasma concentration (mean).
[9] abbreviates: hippocampus, 1 hr after administration, read-out: hippocampus concentration (mean).
Where [10] appears, read: plasma, 1 hr after administration, read-out: plasma concentration (mean).

This is an account of results in US9751885B2, “Cyclopropanamine compound and use thereof” (Takeda Pharmaceutical Company Limited, priority 2012, dated 2017).

Counter-ions that a name gives are not always drawn. Like-named read-outs stand apart in the source and are kept apart here. Some results are limits rather than exact numbers.

Sequence of MAO-A enzyme (P21397 whole entry): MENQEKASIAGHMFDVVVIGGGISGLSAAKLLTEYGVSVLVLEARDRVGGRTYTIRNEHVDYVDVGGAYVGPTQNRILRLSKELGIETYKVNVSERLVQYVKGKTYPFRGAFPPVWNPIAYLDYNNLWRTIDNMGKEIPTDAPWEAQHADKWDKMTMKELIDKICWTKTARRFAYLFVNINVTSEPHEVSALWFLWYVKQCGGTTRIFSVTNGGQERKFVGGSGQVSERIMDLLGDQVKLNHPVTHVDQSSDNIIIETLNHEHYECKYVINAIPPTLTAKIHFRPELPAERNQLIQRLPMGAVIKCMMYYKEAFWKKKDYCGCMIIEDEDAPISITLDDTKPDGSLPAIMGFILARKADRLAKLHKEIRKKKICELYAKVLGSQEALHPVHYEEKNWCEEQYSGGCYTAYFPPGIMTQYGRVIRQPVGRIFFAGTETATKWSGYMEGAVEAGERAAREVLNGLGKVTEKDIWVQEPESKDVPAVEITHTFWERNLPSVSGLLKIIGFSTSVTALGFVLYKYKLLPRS
Sequence of MAO-B enzyme (P27338 whole entry): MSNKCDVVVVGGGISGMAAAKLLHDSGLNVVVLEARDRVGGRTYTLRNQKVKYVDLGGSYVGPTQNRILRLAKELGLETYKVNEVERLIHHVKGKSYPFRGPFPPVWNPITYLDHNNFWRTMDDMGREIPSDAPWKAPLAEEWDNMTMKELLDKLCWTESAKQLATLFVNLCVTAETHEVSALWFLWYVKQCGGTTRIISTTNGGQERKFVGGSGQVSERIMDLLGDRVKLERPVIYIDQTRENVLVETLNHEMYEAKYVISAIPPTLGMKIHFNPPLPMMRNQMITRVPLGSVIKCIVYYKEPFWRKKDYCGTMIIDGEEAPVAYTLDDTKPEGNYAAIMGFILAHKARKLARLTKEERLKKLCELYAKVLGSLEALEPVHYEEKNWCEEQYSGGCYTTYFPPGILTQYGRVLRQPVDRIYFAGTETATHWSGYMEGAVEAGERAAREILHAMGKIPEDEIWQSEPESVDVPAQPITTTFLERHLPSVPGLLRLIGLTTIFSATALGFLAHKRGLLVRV

Take `Cc1ncc(NC(=O)c2cccc([C@@H]3C[C@H]3NCC3CC3)c2)s1` (relative stereo) [Example 79, 3-(trans-2-((cyclopropylmethyl)amino)cyclopropyl)-N-(2-methyl-1,3-thiazol-5-yl)benzamide dihydrochloride]: the values for the IC50 in data set [1], in data set [2] and in data set [4] were over 10 µM, over 10 µM and under 100 nM, respectively. Also, the concentration at 0.5 h is 569 ng/g in data set [3] (setting [7]) and 759 ng/mL in data set [3] (setting [8]). The “platelet number, percentage of compound administration group compared to control group, mean” value (from here on “platelet number, percentage”) in data set [5] (10 mg/kg) turned out to be 92.4%; in data set [5] (100 mg/kg) it was 92.8%. Besides, the “red blood cell number, percentage of compound administration group compared to control group, mean” value (“red blood cell number, percentage” below) in data set [5] (10 mg/kg) is listed as 101.1%; in data set [5] (100 mg/kg), 101.6%. The “white blood cell number, percentage of compound administration group compared to control group, mean” value (“white blood cell number, percentage” for short) in data set [5] (10 mg/kg) worked out at 122.4%; in data set [5] (100 mg/kg), 96.3%.
For `O=C(Nc1ccc(N2CCCC2=O)cc1)c1cccc([C@@H]2C[C@H]2NCC2CC2)c1` (relative stereo) [Example 82, 3-(trans-2-((cyclopropylmethyl)amino)cyclopropyl)-N-(4-(2-oxopyrrolidin-1-yl)phenyl)benzamide hydrochloride], the figures for the IC50 in data set [1], in data set [2] and in data set [4] were over 10 µM, over 10 µM and under 100 nM, respectively. For the same molecule, the concentration at 0.5 h was 58 ng/g in data set [3] (setting [7]) and 5610 ng/mL in data set [3] (setting [8]). The “platelet number, percentage” value in data set [5] (10 mg/kg) stood at 104.6%; in data set [5] (100 mg/kg), 94.6%. Besides, the “red blood cell number, percentage” value is given as 100.5% in data set [5] (10 mg/kg) and 99.9% in data set [5] (100 mg/kg). Moreover, the “white blood cell number, percentage” value came out at 81.2% in data set [5] (10 mg/kg) and 135.5% in data set [5] (100 mg/kg).
`O=C(Nc1cnn(CC2CC2)c1)c1cccc([C@@H]2C[C@H]2NCC2CCOCC2)c1` (relative stereo) [Example 87, N-(1-(cyclopropylmethyl)-1H-pyrazol-4-yl)-3-(trans-2-((tetrahydro-2H-pyran-4-ylmethyl)amino)cyclopropyl)benzamide dihydrochloride]: the results for the IC50 in data set [1], in data set [2] and in data set [4] were over 10 µM, over 10 µM and under 100 nM, respectively. The concentration at 1 h in data set [3] (setting [9]) stood at 43 ng/g; in data set [3] (setting [10]), 251 ng/mL. In addition, the results for the “platelet number, percentage” value in data set [5] (10 mg/kg) and in data set [5] (100 mg/kg) were 111.7% and 105.2%, respectively. For the same molecule, the figures for the “red blood cell number, percentage” value in data set [5] (10 mg/kg) and in data set [5] (100 mg/kg) were 96.8% and 100.7%, respectively. In addition, the entries for the “white blood cell number, percentage” value in data set [5] (10 mg/kg) and in data set [5] (100 mg/kg) were 94.6% and 101.1%, respectively.
For the molecule `Cn1cc(NC(=O)c2cccc([C@@H]3C[C@H]3NCC(C)(C)C)c2)cn1` (relative stereo) [Example 155, 3-(trans-2-((2,2-dimethylpropyl)amino)cyclopropyl)-N-(1-methyl-1H-pyrazol-4-yl)benzamide dihydrochloride], in data set [6] (read-out: Gad1 H3K4me2 induction activity (%), compound 1 μM, 3 days, rat primary culture neurons), the activity at 1 µM turned out to be 104%. For the same molecule, the activity at 10 µM in data set [6] (read-out: Gad1 H3K4me2 induction activity (%), compound 10 μM, 3 days, rat primary culture neurons) was 106%.
As to `Cc1cc(NC(=O)c2cccc([C@@H]3C[C@H]3NC3CCC(F)(F)CC3)c2)on1` (relative stereo) [Example 216, 3-(trans-2-((4,4-difluorocyclohexyl)amino)cyclopropyl)-N-(3-methyl-1,2-oxazol-5-yl)benzamide hydrochloride], the half-maximal inhibitory concentration (IC50) was over 10 µM in data set [1], over 10 µM in data set [2] and under 100 nM in data set [4].
With `O=C(Nc1cnn(Cc2ccc(F)cc2)c1)c1cccc([C@@H]2C[C@H]2NC2CCOCC2)c1` (relative stereo) [Example 217, N-(1-(4-fluorobenzyl)-1H-pyrazol-4-yl)-3-(trans-2-(tetrahydro-2H-pyran-4-ylamino)cyclopropyl)benzamide dihydrochloride], the figures for the IC50 in data set [1], in data set [2] and in data set [4] were over 10 µM, over 10 µM and under 100 nM, respectively.
As to `CC(=O)N1CCC(N[C@@H]2C[C@H]2c2cccc(C(=O)Nc3cnn(Cc4ccc(F)cc4)c3)c2)CC1` (relative stereo) [Example 218, 3-(trans-2-((1-acetylpiperidin-4-yl)amino)cyclopropyl)-N-(1-(4-fluorobenzyl)-1H-pyrazol-4-yl)benzamide dihydrochloride], the IC50 in data set [1] was over 10 µM; in data set [2], over 10 µM; in data set [4], under 100 nM.
Turning to `Cc1cc(NC(=O)c2cccc([C@@H]3C[C@H]3NCC3CCOCC3)c2)no1` (relative stereo) [Example 231, N-(5-methyl-1,2-oxazol-3-yl)-3-(trans-2-((tetrahydro-2H-pyran-4-ylmethyl)amino)cyclopropyl)benzamide], the IC50 in data set [1] is over 10 µM; in data set [2], over 10 µM; in data set [4], under 100 nM. The concentration at 1 h in data set [3] (setting [9]) worked out at 527 ng/g; in data set [3] (setting [10]), 117 ng/mL. Further, the Kp at 1 h in data set [3] (hippocampus/plasma, 1 hr after administration, read-out: hippocampus/plasma concentration ratio (mean)) amounted to 4.5. Besides, the “platelet number, percentage” value in data set [5] (10 mg/kg) worked out at 93.7%; in data set [5] (100 mg/kg), 90.4%. Also, the entries for the “red blood cell number, percentage” value in data set [5] (10 mg/kg) and in data set [5] (100 mg/kg) were 99.7% and 95.0%, respectively. Further, the “white blood cell number, percentage” value was 75.7% in data set [5] (10 mg/kg) and 77.1% in data set [5] (100 mg/kg).
Consider `Cn1cc(NC(=O)c2ccc(F)c([C@@H]3C[C@H]3NCC3CC3)c2)cn1` (relative stereo) [Example 237, 3-(trans-2-((cyclopropylmethyl)amino)cyclopropyl)-4-fluoro-N-(1-methyl-1H-pyrazol-4-yl)benzamide dihydrochloride], for which the IC50 is over 10 µM in data set [1], over 10 µM in data set [2] and under 100 nM in data set [4]. The concentration at 0.5 h in data set [3] (setting [7]) was 237 ng/g; in data set [3] (setting [8]), 523 ng/mL. The “platelet number, percentage” value in data set [5] (10 mg/kg) is given as 90.3%; in data set [5] (100 mg/kg), 91.9%. Also, the entries for the “red blood cell number, percentage” value in data set [5] (10 mg/kg) and in data set [5] (100 mg/kg) were 98.8% and 96.5%, respectively. Further, the “white blood cell number, percentage” value worked out at 83.9% in data set [5] (10 mg/kg) and 86.7% in data set [5] (100 mg/kg).
`O=C(NC1CC(F)(F)C1)c1ccc(F)c([C@@H]2C[C@H]2NCC2CC2)c1` (relative stereo) [Example 240, 3-(trans-2-((cyclopropylmethyl)amino)cyclopropyl)-N-(3,3-difluorocyclobutyl)-4-fluorobenzamide hydrochloride]: the IC50 was over 10 µM in data set [1], over 10 µM in data set [2] and under 100 nM in data set [4]. Further, the concentration at 0.5 h in data set [3] (setting [7]) is 329 ng/g; in data set [3] (setting [8]) it was 247 ng/mL. Moreover, the Kp at 0.5 h in data set [3] (hippocampus/plasma, 0.5 hr after administration, read-out: hippocampus/plasma concentration ratio (mean)) stood at 1.31. Moreover, the “platelet number, percentage” value amounted to 90.7% in data set [5] (10 mg/kg) and 94.7% in data set [5] (100 mg/kg). In addition, the “red blood cell number, percentage” value in data set [5] (10 mg/kg) is 95.5%; in data set [5] (100 mg/kg), 98.7%. The “white blood cell number, percentage” value in data set [5] (10 mg/kg) is 82.3%; in data set [5] (100 mg/kg), 109.4%.
In the case of `O=C(NCC(c1ccccc1)N1CCOCC1)c1ccc(C2CC2NCC2CC2)cc1` (stereo not drawn) [Example 24, 4-(trans-2-((cyclopropylmethyl)amino)cyclopropyl)-N-(2-(morpholin-4-yl)-2-phenylethyl)benzamide bis(trifluoroacetate)], the figures for the IC50 in data set [1], in data set [2] and in data set [4] were over 10 µM, over 10 µM and under 100 nM, respectively.
